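All cell lines were grown in 96-well plates and treated with compound for 48 hours. Here, GI50 denotes the concentration required for 50% inhibition of growth. TGI: total growth inhibition.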
What was measured:
Assay in all cases: inhibition of tumour cell growth, NCI panel, 48 h
HCC-2998 colon = test system: HCC-2998 colon
HCT-15 colon = test system: HCT-15 colon
NCI-H23 lung = test system: NCI-H23 lung
OVCAR-3 ovarian = test system: OVCAR-3 ovarian
RXF 393 renal = test system: RXF 393 renal
SF-268 CNS = test system: SF-268 CNS
SN12C renal = test system: SN12C renal
SW-620 colon = test system: SW-620 colon
UO-31 renal = test system: UO-31 renal
OVCAR-4 ovarian = test system: OVCAR-4 ovarian

COc1cc(C2CC(c3ccc(C)cc3)=NN2C=O)ccc1Oc1ccnc2cc(Cl)ccc12 (stereo not given)
GI50 (HCC-2998 colon): > 50 µM | TGI (HCC-2998 colon): > 50 µM | GI50 (HCT-15 colon): > 50 µM | TGI (HCT-15 colon): > 50 µM | GI50 (NCI-H23 lung): 6.93 µM | TGI (NCI-H23 lung): > 50 µM | GI50 (OVCAR-3 ovarian): > 50 µM | TGI (OVCAR-3 ovarian): > 50 µM | GI50 (RXF 393 renal): 4.16 µM | TGI (RXF 393 renal): 20.5 µM | GI50 (SF-268 CNS): 11.3 µM | TGI (SF-268 CNS): > 50 µM | GI50 (SN12C renal): > 50 µM | TGI (SN12C renal): > 50 µM | GI50 (SW-620 colon): > 50 µM | TGI (SW-620 colon): > 50 µM | GI50 (UO-31 renal): > 50 µM | TGI (UO-31 renal): > 50 µM

Cc1cc(C)nc(NS(=O)(=O)c2ccc(Nc3c4ccccc4nc4c(C(=O)Nc5ccc(S(=O)(=O)N=C(N)N)cc5)ccc(Cl)c34)cc2)n1
TGI (HCC-2998 colon): 38.4 µM | TGI (NCI-H23 lung): 43.7 µM | TGI (OVCAR-3 ovarian): 37.5 µM | TGI (OVCAR-4 ovarian): 75.4 µM | TGI (RXF 393 renal): 38.6 µM | TGI (SF-268 CNS): 97.2 µM | TGI (SN12C renal): 80.9 µM | TGI (UO-31 renal): 73.9 µM

COc1cc([C@H]2c3cc4c(cc3O[C@@]3(O)COC(=O)[C@@H]23)OCO4)cc(OC)c1OC
TGI (HCC-2998 colon): > 100 µM | TGI (HCT-15 colon): > 100 µM | TGI (OVCAR-3 ovarian): > 100 µM | TGI (OVCAR-4 ovarian): > 100 µM | TGI (SF-268 CNS): > 100 µM | TGI (SN12C renal): > 100 µM | TGI (SW-620 colon): > 100 µM | TGI (UO-31 renal): > 100 µM

O=[N+]([O-])c1ccc(C(c2c[nH]c3ccccc23)c2c[nH]c3ccccc23)cc1
TGI (HCC-2998 colon): 39.3 µM | TGI (HCT-15 colon): 29.7 µM | TGI (NCI-H23 lung): 21.4 µM | TGI (OVCAR-3 ovarian): 8.31 µM | TGI (OVCAR-4 ovarian): 28.2 µM | TGI (SF-268 CNS): 22.5 µM | TGI (SN12C renal): 35.2 µM | TGI (SW-620 colon): 27.9 µM | TGI (UO-31 renal): 22.9 µM

Cn1c2c(c3ccccc31)CCN(CCCCN1CCc3c(n(C)c4ccccc34)C1=O)C2
TGI (HCT-15 colon): > 100 µM | TGI (NCI-H23 lung): > 100 µM | TGI (OVCAR-3 ovarian): > 100 µM | TGI (OVCAR-4 ovarian): > 100 µM | TGI (RXF 393 renal): > 100 µM | TGI (SF-268 CNS): > 100 µM | TGI (SN12C renal): > 100 µM | TGI (SW-620 colon): > 100 µM | TGI (UO-31 renal): > 100 µM

Cc1c2c(nn1-c1ccc(S(=O)(=O)NC(=S)Nc3ccccc3)cc1)-c1ccccc1CC2
GI50 (HCT-15 colon): 38.8 µM | TGI (HCT-15 colon): > 50 µM | GI50 (NCI-H23 lung): 46.8 µM | TGI (NCI-H23 lung): > 50 µM | GI50 (OVCAR-3 ovarian): 36.8 µM | TGI (OVCAR-3 ovarian): > 50 µM | GI50 (OVCAR-4 ovarian): > 50 µM | TGI (OVCAR-4 ovarian): > 50 µM | GI50 (RXF 393 renal): > 50 µM | TGI (RXF 393 renal): > 50 µM | GI50 (SF-268 CNS): 18.7 µM | TGI (SF-268 CNS): > 50 µM | GI50 (SN12C renal): > 50 µM | TGI (SN12C renal): > 50 µM | GI50 (SW-620 colon): > 50 µM | TGI (SW-620 colon): > 50 µM | GI50 (UO-31 renal): > 50 µM | TGI (UO-31 renal): > 50 µM

Cc1ccc(-[n+]2c3cc(N)c(C)cc3nc3cc(C)c(Nc4ccccc4)cc32)cc1
GI50 (HCC-2998 colon): 0.566 µM | TGI (HCC-2998 colon): 1.82 µM | GI50 (OVCAR-4 ovarian): 0.333 µM | TGI (OVCAR-4 ovarian): 1.59 µM | GI50 (SW-620 colon): 0.0708 µM | TGI (SW-620 colon): 1.08 µM | GI50 (UO-31 renal): 0.27 µM | TGI (UO-31 renal): 1.03 µM

Nc1ccn(CCOC(=O)c2ccccc2)c(=O)n1
TGI (HCT-15 colon): > 100 µM | TGI (OVCAR-3 ovarian): > 100 µM | TGI (OVCAR-4 ovarian): > 100 µM | TGI (RXF 393 renal): > 100 µM | TGI (SF-268 CNS): > 100 µM | TGI (SN12C renal): > 100 µM | TGI (SW-620 colon): > 100 µM | TGI (UO-31 renal): > 100 µM

O=C(NNc1nc(Cl)nc(N2CCN(C(c3ccccc3)c3ccccc3)CC2)n1)c1ccccc1
GI50 (HCC-2998 colon): 1.63 µM | TGI (HCC-2998 colon): 3.16 µM | GI50 (HCT-15 colon): 1.62 µM | TGI (HCT-15 colon): 3.42 µM | GI50 (NCI-H23 lung): 1.83 µM | TGI (NCI-H23 lung): 3.64 µM | GI50 (OVCAR-3 ovarian): 1.65 µM | TGI (OVCAR-3 ovarian): 3.13 µM | GI50 (OVCAR-4 ovarian): 1.68 µM | TGI (OVCAR-4 ovarian): 3.14 µM | GI50 (RXF 393 renal): 1.62 µM | TGI (RXF 393 renal): 3.13 µM | GI50 (SF-268 CNS): 1.73 µM | TGI (SF-268 CNS): 3.33 µM | GI50 (SN12C renal): 1.72 µM | TGI (SN12C renal): 3.17 µM | GI50 (UO-31 renal): 2.54 µM | TGI (UO-31 renal): 17.2 µM

COc1ccc2nc(N/N=C(\C)c3ccccn3)cc(C)c2c1
GI50 (HCC-2998 colon): 0.348 µM | TGI (HCC-2998 colon): 2.06 µM | GI50 (HCT-15 colon): 0.0916 µM | TGI (HCT-15 colon): 1.65 µM | GI50 (NCI-H23 lung): 0.44 µM | TGI (NCI-H23 lung): 4.46 µM | GI50 (OVCAR-3 ovarian): 0.0652 µM | TGI (OVCAR-3 ovarian): 0.215 µM | GI50 (OVCAR-4 ovarian): 0.156 µM | TGI (OVCAR-4 ovarian): 2.57 µM | GI50 (SF-268 CNS): 0.228 µM | TGI (SF-268 CNS): 1.46 µM | GI50 (SN12C renal): 0.317 µM | TGI (SN12C renal): 1.71 µM | GI50 (SW-620 colon): 0.381 µM | TGI (SW-620 colon): 1.75 µM | GI50 (UO-31 renal): 0.161 µM | TGI (UO-31 renal): 1.08 µM

Nn1c(-c2ccccc2)nc2ccc(Br)cc2c1=O
TGI (HCC-2998 colon): > 100 µM | TGI (HCT-15 colon): > 100 µM | TGI (NCI-H23 lung): > 100 µM | TGI (OVCAR-3 ovarian): 81.9 µM | TGI (OVCAR-4 ovarian): 86.7 µM | TGI (SF-268 CNS): > 100 µM | TGI (SN12C renal): > 100 µM | TGI (SW-620 colon): > 100 µM | TGI (UO-31 renal): > 100 µM

CCC[CH2][Sn-]([CH2]CCC)([CH2]CCC)[O]c1cc(Cl)c(Cl)cc1Cl
GI50 (HCC-2998 colon): 0.176 µM | TGI (HCC-2998 colon): 0.334 µM | GI50 (HCT-15 colon): 0.165 µM | TGI (HCT-15 colon): 0.33 µM | GI50 (NCI-H23 lung): 0.23 µM | TGI (NCI-H23 lung): 1.17 µM | GI50 (OVCAR-3 ovarian): 0.176 µM | TGI (OVCAR-3 ovarian): 0.365 µM | GI50 (OVCAR-4 ovarian): 0.148 µM | TGI (OVCAR-4 ovarian): 0.398 µM | GI50 (RXF 393 renal): 0.196 µM | TGI (RXF 393 renal): 0.509 µM | GI50 (SF-268 CNS): 0.229 µM | TGI (SF-268 CNS): 1.05 µM | GI50 (SN12C renal): 0.164 µM | TGI (SN12C renal): 0.338 µM | GI50 (SW-620 colon): 0.207 µM | TGI (SW-620 colon): 0.44 µM

O=C1C(=O)N(C(=O)c2ccc(Cl)c(Cl)c2)c2ccccc21
TGI (NCI-H23 lung): > 100 µM | TGI (OVCAR-3 ovarian): > 100 µM | TGI (OVCAR-4 ovarian): > 100 µM | TGI (RXF 393 renal): > 100 µM | TGI (SF-268 CNS): > 100 µM | TGI (SW-620 colon): > 100 µM | TGI (UO-31 renal): > 100 µM

CCOC(=O)C(=O)Nc1nc2c(s1)C(=O)c1ccccc1C2=O
TGI (HCC-2998 colon): 31.6 µM | TGI (HCT-15 colon): 29.6 µM | TGI (NCI-H23 lung): 27.6 µM | TGI (OVCAR-3 ovarian): 18.6 µM | TGI (OVCAR-4 ovarian): 31.5 µM | TGI (SF-268 CNS): 27.3 µM | TGI (SN12C renal): 30.1 µM | TGI (SW-620 colon): 27.7 µM | TGI (UO-31 renal): 28 µM

O=C1CC(O)C=C1Nc1ccc(Cl)cc1 (stereo not given)
TGI (HCC-2998 colon): 44.5 µM | TGI (NCI-H23 lung): > 100 µM | TGI (OVCAR-3 ovarian): > 100 µM | TGI (OVCAR-4 ovarian): > 100 µM | TGI (RXF 393 renal): > 100 µM | TGI (SF-268 CNS): > 100 µM | TGI (SN12C renal): > 100 µM | TGI (SW-620 colon): > 100 µM | TGI (UO-31 renal): > 100 µM

COc1cc(OC)c([C@@H]2OC(=O)C3C2C(=O)O[C@H]3c2cc(OC)c(OC)cc2OC)cc1OC (stereo not given in full)
TGI (HCC-2998 colon): > 100 µM | TGI (HCT-15 colon): > 100 µM | TGI (NCI-H23 lung): > 100 µM | TGI (OVCAR-3 ovarian): > 100 µM | TGI (OVCAR-4 ovarian): > 100 µM | TGI (RXF 393 renal): > 100 µM | TGI (SN12C renal): > 100 µM | TGI (SW-620 colon): > 10 µM | TGI (UO-31 renal): > 100 µM

Cc1cnc2c(C)ccc([N+](=O)[O-])c2c1NCCCN(C)C
TGI (HCC-2998 colon): > 100 µM | TGI (HCT-15 colon): > 100 µM | TGI (NCI-H23 lung): > 100 µM | TGI (OVCAR-3 ovarian): > 100 µM | TGI (OVCAR-4 ovarian): > 100 µM | TGI (SF-268 CNS): > 100 µM | TGI (SN12C renal): > 100 µM | TGI (SW-620 colon): > 100 µM | TGI (UO-31 renal): > 100 µM

CCOC(=O)[C@@]1(C)C=C2O[C@@H]3OC4(CCCCC4)O[C@@H]3C2=C2C(O)=CC=C(O)[C@]21C(=O)OC
TGI (HCC-2998 colon): > 68 µM | TGI (HCT-15 colon): > 68 µM | TGI (NCI-H23 lung): > 68 µM | TGI (OVCAR-3 ovarian): > 68 µM | TGI (OVCAR-4 ovarian): > 68 µM | TGI (SF-268 CNS): > 68 µM | TGI (SN12C renal): > 68 µM | TGI (SW-620 colon): > 68 µM | TGI (UO-31 renal): > 68 µM

CCc1cccc(C(C)C)c1NC(=O)C(=O)C(Cc1nc2ccccc2[nH]c1=O)C(=O)OC (stereo not given)
TGI (HCC-2998 colon): > 100 µM | TGI (HCT-15 colon): > 100 µM | TGI (NCI-H23 lung): > 100 µM | TGI (OVCAR-3 ovarian): > 100 µM | TGI (OVCAR-4 ovarian): > 100 µM | TGI (RXF 393 renal): > 100 µM | TGI (SF-268 CNS): > 100 µM | TGI (SN12C renal): > 100 µM | TGI (UO-31 renal): > 100 µM

From PubChem BioAssay (NCI)
